Reference: US6028102A, “Anticonvulsant drugs and pharmaceutical compositions thereof” (priority 1998, dated 2000)
“Also recorded” adds a separate entry of the source.

Assays:
[1] = Metabolism and urinary excretion in rats; type: in vivo; conditions: iv
Experimental: (§1) In two separate experiments cold (unlabeled) Z-glycinamdie and Z-glucine were injected intravenously to male rats. For the experiments, the two compounds were dissolved in 0.2 mL of DMSO and were injected at a dose of 25 mg. Blood samples (8 mL each) were collected from the ascending vena cava of an individual rat at 5, 10, 20, 30, 45, 60, 90, 120, 150, 180, 240, 300, 360 and 480 minutes after administering the drug dose. Three rats were sacrificed for each of the aforementioned time measurements and the plasma or tissue obtained from each rat for each time point was averaged. Plasma was immediately separated by centrifugation at 3000 g for 15 minutes and stored at -20° C. until analyzed. Brain and liver were quickly removed at the same time intervals under light ether anesthesia, the excised tissues were immersed in liquid nitrogen for a few minutes and stored at -70° C. until analyzed. Four rats were kept in metabolic cages and the cumulative urine was collected from each rat for 480 minutes after dosing.
In rats […] of the N-benzyloxycarbonylglycinamide (IX) dose administered is metabolized to Z-glycine and excreted in the urine with the remaining 15% excreted as N-benzyloxycarbonylglycinamide (IX).

[2] = rotored ataxia test (neurotoxicity), ip to mice; type: in vivo; conditions: for TD50: mouse, in vivo, ip
Experimental: (§2) Screening of Anticonvulsant Activity
(§3) Compounds I-XI were screened in carworth farm #1 mice (ip--in a volume of 0.01 mL/g of body weight) and sprague-Dawley rats (po--in a volume of 0.004 mL/g of body weight) for their anticonvulsant activity and neurotoxicity by the NIH epilepsy Branch [Porter et al, 1984]. The screening procedure involved the following:
(§4) 1) the maximal electroshock (MES) test, which measures seizure spread; 2) the subcutaneous pentylenetetrazol test (sc Met test) which measures seizure threshold; and 3) the rotored ataxia test which assesses neurotoxicity.
TD50 - Neurotoxic dose in 50% of the test animals.

[3] = Pharmacokinetic analysis following iv administration to dogs; type: in vivo; conditions: for clearance: CL
Experimental: The experiments were carried out on six male dogs (mongrels), ranging in weight between 18 and 22 kg. In a randomized cross over design, each dog was injected intravenously (in 1.5 mL of DMSO) with a dose of 400 mg of N-acetyl,N'-benzylglycinamide (VII), 404 mg (on dose equivalent to 400 mg of compound VII) of Z-glycinamide (IX) and 406 mg of Z-glycine (VIII). Urine was collected systematically for 12 hours after dosing, by means of an indwelling catheter.
Venous blood samples (6 mL) were collected via an indwelling catheter (from the cephalic vein) at specified intervals following injection (0, 5, 10, 20, 30, 45 minutes and 1, 1.5, 2, 2.5, 3, 4, 5, 6, 7, 8, 10 and 12 hours respectively). The plasma was then immediately separated by centrifugation at 3000 g for 15 minutes and stored at -20° C. Before each assay, the plasma was allowed to reach room temperature, vortexed, centrifuged and the residual clot removed.
Urine samples were collected via a urine catheter at specified intervals following injection (0, 1, 2, 3, 4, 5, 6, 7, 8, 9, 10 and 12 hours respectively), the samples volume were measured and the urine samples were stored at -20° C. Plasma and urine levels of compounds VII, VIII and IX were then assayed by a HPLC assay described herein below.
HPLC Assay for Monitoring N-acetyl,N'-benzylglycinamide (VII) and N-benzyloxycarbonylglycinamide (IX) in Dog Plasma and Urine
Plasma samples are allowed to reach room temperature, vortexed and centrifuged. The plasma was then assayed as follows:
To 0.5 mL of plasma, 10 μg of an internal standard (N-benzyl-oxycarbonylglycinamide (IX)) and 4 mL of tert-butylmethylether were added. The mixture was vigorously vortexed for 30 seconds, centrifuged for 10 minutes at 3000 g, the organic phase was separated and evaporated to dryness (using a vortex evaporator). To the residue, 80 μl of methanol were added, the mixture was vortexed and 30 μl were injected into the HPLC (Schimadzu SCL-10A with a UV-visible detector model SPD-10A).
Urine samples are allowed to reach room temperature, vortexed and centrifuged. The urine was then assayed as follows:
To 0.25 mL of urine, 10 μg of internal standard (N-benzyl-oxycarbonylglycinamide (IX)), 100 μl of hydrochloric acid solution (1 N) and 4 mL of tert-butylmethylether were added. The mixture was vigorously vortexed for 30 seconds and centrifuged for 10 minutes at 3000 g, the organic phase was separated and transferred to another test tube containing 0.5 mL of sodium hydroxide solution (1N), the mixture was vigorously vortexed for 30 seconds, centrifuged for 10 minutes at 3000 g, the organic phase was separated and evaporated to dryness (using a vortex evaporator). To the residue, 80 μl of methanol were added, the mixture was vortexed and 30 μl were injected into the HPLC.
HPLC conditions: HPLC column; Hypersil ODS (C-18) 5μ, 4.6×150 mm; Wavelength: 258 nm; Mobile phase: 60% water, 40% methanol and 0.01% trifluoroacetic acid.
The same assay was used for monitoring N-benzyloxycarbonyl-glycinamide (IX) in dog plasma and dog urine using N-acetyl,N'-benzylglycinamide as an internal standard.
HPLC Assay for Monitoring Z-glycine (VIII) in Dog Plasma and Urine
To 0.5 mL of plasma, 10 μg of internal standard (Z-GABA), 100 μl of hydrochloric acid solution (1N) and 5 mL of tert-butylmethylether were added. The mixture was vigorously vortexed for 30 seconds, centrifuged for 10 minutes at 3000 g, the organic phase was separated and evaporated to dryness (using a vortex evaporator). To the residue, 100 μl of mobile phase were added, the mixture was vortexed and 30 μl were injected to the HPLC.
Urine samples was allowed to reach room temperature, vortexed and centrifuged. The urine was then assayed as follows:
To 0.1 mL of urine, 30 μg of internal standard (Z-GABA) and 5 mL of tert-butylmethylether were added. The mixture was vigorously vortexed for 30 seconds, centrifuged for 10 minutes at 3000 g, the organic phase was separated off. […]

[4] = maximal electroshock (MES) test, ip to mice; type: in vivo; conditions: for ED50: Mus musculus
Experimental: as §2, §3, §4
Anticonvulsant activity and neurotoxicity of N-acetyl, N'-
benzylglycinamide (VII) and N-benzyloxycarbonylglycinamide
(IX) following ip administration to mice in comparison to
phthaloylglycinamide and N-valproylglycinamide^a.
MES Maximal electroshock.
(§5) ED50 - Effective dose in 50% of the test animals.

[5] = Blood stability study in dog blood; type: in vitro ADME
Experimental: Blood samples (4 mL) were then collected at the following times: 0, 1, 2, 3, 4, 5 and 6 hours. Plasma was immediately separated and the compounds concentrations in the plasma assayed by HPLC.

[6] = Blood-brain-barrier crossing after iv injection to rats; type: in vivo; conditions: 25 mg
Experimental: as §1

[7] = Screening of anticonvulsant activity; type: in vivo, mice; conditions: for anticonvulsant activity in words: overall finding of the study
Experimental: as §2, §3, §4
Applicants therefore decided to derivatize glycinamide and the above dipeptides by synthesizing their N-acetyl and N'-benzyl derivatives (compounds IV-VIII). […] Therefore, this compound was further analyzed quantitatively and its ED50 data and protective indices in comparison to phthaloyl glycinamide and valproyl glycinamide--TV 1901 [17] are presented in Table 2. As a consequence of their anticonvulsant activity, the pharmacokinetics of compounds VII and IX were investigated following iv administration (400 mg) to six dogs, and the mean plasma levels of compounds VII and IX are presented in FIGS. 1 and 2, respectively.

[8] = subcutaneous pentylenetetrazol test (sc Met), ip to mice; type: in vivo
Experimental: as §2, §3, §4, §5

[9] = Partitioning study, blood-plasma concentration ratio; type: in vitro ADME; conditions: dog blood, 25° C., 5-40 mg/L
Experimental: The blood-plasma concentration ratio of compounds VII and IX (partitioning study) was carried out at room temperature (25° C.) by spiking known amounts of the compound in six samples of fresh blood taken from a dog prior to drug administration. N-acetyl, N'-benzylglycinamide and Z-glycinamide concentrations were 5, 10, 15, 20, 30 and 40 mg/L. Each blood sample was centrifuged immediately after spiking and the separation of the plasma was carried out according to the procedure described hereinabove. Plasma levels of the two compounds VII and IX were determined by HPLC.

[10] = mice; Kohn et al 1988, 1990, 1991; Conley and Kohn, 1987; cited from earlier work
Stability in dog plasma = type: in vitro ADME; conditions: 37° C. and 20° C.
[11] = 6 hours at physiological conditions (37° C.)

Question: With `NC(=O)CNC(=O)OCc1ccccc1` [IX, N-benzyloxycarbonylglycinamide] as the molecule, how does the “dose metabolized to Z-glycine and excreted in the urine” value ([1]; rat, in vivo, 480 min) read?
Answer: 75%

Question: And the site of metabolism ([1]; rats)?
Answer: occurs primarily in the liver

Question: And the TD50 [2]?
Answer: 230 mg/kg

Question: What about the CL ([3]; dog, in vivo) of the same molecule?
Answer: 10.7 ± 4.3 L/h

Question: And the half-life ([3]; dog, in vivo)?
Answer: 2.3 ± 1.3 h

Question: And the hepatic extraction ratio ([3]; dog, in vivo)?
Answer: 0.02

Question: And the metabolised ([3]; dog, in vivo)?
Answer: 80 ± 14%

Question: What about the clearance ([3]; dog, in vivo) of the same molecule?
Answer: 183 mL/min

Question: What about the MRT ([3]; dog, in vivo, MRT) of the same molecule?
Answer: 3.3 ± 1.8 h

Question: And the Vd ([3]; dog, in vivo, VSS)?
Answer: 33 ± 10 L

Question: What about the Vd ([3]; dog, in vivo, Vss) of the same molecule?
Answer: 33 ± 10 L

Question: And the “pharmacokinetics and elimination in words” value ([3]; dogs)?
Answer: mainly metabolized to Z-glycine; also recorded: eliminated from the body mainly by metabolism

Question: And the “pharmacokinetics and elimination in words” value ([3]; dogs, listed as Z-glycinamide)?
Answer: mainly metabolized to the inactive Z-glycine

Question: And the “PI, MES (Protective index, ratio of TD50 to ED50)” value [4]?
Answer: 5.0

Question: And the ED50 [4]?
Answer: 46 mg/kg

Question: And the “stability in dog blood” value [5, 11]?
Answer: stable

Question: What about the “crossing of the blood-brain-barrier” value [6] of the same molecule?
Answer: crossed the blood-brain-barrier more readily than does Z-glycine

Question: And the “anticonvulsant activity in words” value [7]?
Answer: showed anticonvulsant activity in mice; also recorded: active

Question: What about the “PI, sc Met (Protective index, ratio of TD50 to ED50)” value [8] of the same molecule?
Answer: 2.4

Question: And the ED50 ([8]; Mus musculus)?
Answer: 95 mg/kg

Question: And the “plasma to blood ratio” value [9]?
Answer: 0.95±0.05

Question: Which “anticonvulsant activity in MES test” value [10] does the source give for `CC(=O)NCC(=O)NCc1ccccc1` [compound VII, N-Acetyl,N'-benzylglycinamide] here?
Answer: active at a higher dose of 300 mg/kg

Question: And the “stability in dog plasma” value (Stability in dog plasma)?
Answer: stable

Question: And the neurotoxic signs ([2]; at a dose as high as 300 mg/kg)?
Answer: did not show neurotoxic signs

Question: And the TD50 [2]?
Answer: > 200 mg/kg

Question: What about the CL ([3]; dog, in vivo) of the same molecule?
Answer: 6.8 ± 0.84 L/h

Question: What about the MRT ([3]; dog, in vivo) of the same molecule?
Answer: 3.0 ± 0.6 h

Question: And the half-life ([3]; dog, in vivo)?
Answer: 2.1 ± 0.4 h

Question: And the hepatic extraction ratio ([3]; dog, in vivo)?
Answer: 0.0125

Question: What about the “pharmacokinetics and elimination in words” value ([3]; dog, in vivo) of the same molecule?
Answer: eliminated from the body mainly by metabolism

Question: And the t1/2 ([3]; dog, in vivo)?
Answer: 2.1 ± 0.5 h

Question: What about the clearance ([3]; dog, in vivo) of the same molecule?
Answer: 107 mL/min

Question: And the MRT ([3]; dog, in vivo, MRT)?
Answer: 3.3 ± 0.8 h

Question: And the Vd ([3]; dog, in vivo, VSS)?
Answer: 21 ± 4 L

Question: What about the Vd ([3]; dog, in vivo, Vss) of the same molecule?
Answer: 20 ± 4 L

Question: What about the Vd ([3]; dog, in vivo, Vβ) of the same molecule?
Answer: 19 ± 6 L

Question: What about the “PI, MES (Protective index, ratio of TD50 to ED50)” value [4] of the same molecule?
Answer: 2.3

Question: And the ED50 [4]?
Answer: 88 mg/kg

Question: What about the “stability in dog blood” value ([5]; 20° C.) of the same molecule?
Answer: unstable

Question: And the “stability in dog blood” value [5, 11]?
Answer: unstable

Question: What about the anticonvulsant activity ([7]; ip administration of 100 mg/kg to mice) of the same molecule?
Answer: showed anticonvulsant activity

Question: What about the “anticonvulsant activity in words” value [7] of the same molecule?
Answer: active
